# Experimental data as given in PMC5684361, “Selectivity and ligand-based molecular modeling of an odorant-binding protein from the leaf beetle Ambrostoma quadriimpressum (Coleoptera: Chrysomelidae) in relation to habitat-related volatiles” (Scientific Reports, 2017).
# Entries after “also recorded” stand apart in the source; their conditions may differ. Like-named read-outs stand apart in the source and are kept apart here.
# Tests used:
# AquaOBP4 = experiment: Fluorescence competitive binding assay with 1-NPN reporter; set-up: species or system Ambrostoma quadriimpressum; settings: for binding to AquaOBP4 (1-NPN displacement): first-round screening
# Excerpt: Binding affinity was primarily tested with a panel of 40 A. quadriimpressum habitat-related compounds, most of which are abundantly distributed in elms and A. quadriimpressum. Additionally, one newly identified repellent, cinnamaldehyde, was included[25],[27],[28]. After the molecular model of AquaOBP4 was established, we selected two additional compounds, which also came from elms and A. quadriimpressum, for model validation. All of the compounds were purchased from Sigma-Aldrich (Millipore Sigma, USA) with purities of greater than 95%. The CAS numbers, structures and sources of the tested compounds are listed in Table 2, and detailed information (including content) for each odorant is provided in Table S1.
# N-phenyl-1-naphthylamine (1-NPN) was used as a reporter to measure the affinity of the fluorescent 1-NPN ligand to proteins. The fluorescence spectra were recorded using a Fluoromax-4 spectrofluorometer (HORIBA Jobin Yvon, New York, USA) with 2 µM protein in 50 mM ammonium acetate (pH 7.2) at room temperature; the compounds and 1-NPN were dissolved in high-performance liquid chromatography (HPLC)-grade methanol at a concentration of 1 mM. Parameter selection was such that the slit widths for both excitation and emission were 10 nm. The reporter was excited at 337 nm, and the emission spectra were recorded between 380 and 500 nm. The AquaOBP4 saturation curve was tested using 1-NPN at 2 to 14 µM, and the affinities of the compounds were estimated using 2 µM 1-NPN and 10 to 70 µM concentrations of the compounds. The curves were then linearized using Scatchard plots. IC50 and Kd values were analyzed using Prism 6 (GraphPad Software, USA), and Ki values were calculated using the following equation: Ki = [IC50]/1 + [1-NPN]/Kd, where [1-NPN] is the concentration of dissociative 1-NPN and Kd is the dissociation constant of the protein/1-NPN complex. To investigate the response of AquaOBP4 at low pH, the fluorescence binding affinity between AquaOBP4 and one of the best ligands was measured at pH 5. Then, 50 mM ammonium acetate (pH 5) was used as a buffer to dissolve the AquaOBP4 protein.
# [1] = tested on: antennae of A. quadriimpressum; experiment: Electroantennogram (EAG) responses of binding odorants; type: in vivo, Ambrostoma quadriimpressum; settings: 0.1, 1 and 10 µg/µl in paraffin oil; normalized to negative control
# [2] = tested on: A. quadriimpressum adults; experiment: Y-tube olfactometer behavioral test; type: in vivo, Ambrostoma quadriimpressum; settings: 10 µg/µl in paraffin oil (methods), 1 µg/µl; vs paraffin oil control; N = 90
# Description: The responses of A. quadriimpressum to the three best ligands were assessed in a Y-tube olfactometer. The compounds were tested at an intermediate concentration of 10 µg/µl in paraffin oil. In these assays, 20 μl of the odorant was applied to a piece of filter paper (25 × 25 mm), which was then placed in one of the olfactometer arms. In the other arm, 20 μl of paraffin oil was used as a negative control. Thirty beetles (15 males and 15 females) were individually tested, with three replicates for each individual (for a total of 90 replicates). A red light source was used in the darkroom to avoid light interference. For the Y-tube (1-cm diameter, 100-cm base length, 10-cm arm length), one small hole was cut into the base of the Y-tube at 10 cm for releasing beetles. The source of the air that passed through the Y-tube was a pressurized tank of pure air. The air was first filtered through active carbon and then humidified by bubbling it through a bottle filled with double-distilled (dd) water before entering the Y-tube. The air flow traveled through both arms of the Y-tube olfactometer at a speed of 300 ml/min. Each individual beetle was placed at the entrance of the olfactometer (Fig. 1), and their “choice” was recorded when the beetle entered an arm and remained there for 30 s. If an insect made no choice within 3 min, the result was recorded as “no-choice”. […]
# A. quadriimpressum = tested on: A. quadriimpressum; set-up: method as in doi:10.1653/024.099.0212; settings: cited from earlier work
# [3] = tested on: antennae of A. quadriimpressum; set-up: method as in previous results of the authors; settings: ref previous results of the authors; cited from earlier work
# [4] = Table 3, pH 7.2, 2 µM 1-NPN, 2 µM protein, compounds 10 to 70 µM
# [5] = Table 3 and text, pH 7.2, 2 µM 1-NPN, calculated from IC50
Compound,binding to AquaOBP4 (1-NPN displacement) (AquaOBP4; pH 7.2),IC50 (AquaOBP4; [4]) [µM],Ki (AquaOBP4; [5]) [µM],pKi (AquaOBP4; Table 4),"IC50 (AquaOBP4; Table 4, pH 7.2, 2 µM 1-NPN) [µM]","Ki (AquaOBP4; Table 4, pH 7.2, 2 µM 1-NPN) [µM]",further results
COC(=O)c1ccccc1O [Methyl salicylate],did not bind,–,–,–,–,–,–
CC(C)COC(=O)c1ccccc1C(=O)OCC(C)C [Diisobutyl phthalate],–,50.4,26.8,4.57,50.4,26.8,EAG response [1]: strong EAG responses
CC/C=C\CCOC(C)=O [Leaf acetate],no binding,–,–,–,–,–,–
COC(=O)c1ccccc1 [Methyl benzoate],did not bind; also recorded: no binding,–,–,–,–,–,–
Isoeugenol,–,–,–,3.77,321,171,–
"c1ccc(Nc2cccc3ccccc23)cc1 [1-NPN, N-phenyl-1-naphthylamine, reference compound]",–,–,–,–,–,–,"Kd (AquaOBP4; pH 5): 1.49 ± 0.08 µM; Kd (AquaOBP4; pH 7.2, 2 µM protein, 1-NPN 2 to 14 µM): 2.27 ± 0.16 µM"
CCCCOC(=O)c1ccccc1C(=O)OCCCC [Dibutyl phthalate],–,45.6,24.2,4.62,45.6,–,attraction of A. quadriimpressum adults in Y-tube olfactometer [2]: slightly higher attractiveness; EAG response [1]: strong EAG responses
CC(=O)/C=C/C1=C(C)CCCC1(C)C [β-Ionone],–,56.6,30.1,4.52,56.6,–,–
O=C/C=C/c1ccccc1 [Cinnamaldehyde],–,149,79.3,4.10,149,79.3,repellent / antifeedant effect against A. quadriimpressum (A. quadriimpressum): strong repellent; repellent / antifeedant effect against A. quadriimpressum (A. quadriimpressum; listed as cinnamaldehyde): antifeedant; physiological response on the antennae of A. quadriimpressum [3]: strong physiological response
"CC(=O)Oc1ccccc1 [Acetic acid, Phenyl ester]",did not bind,–,–,–,–,–,–
CCCCCCCCOC(=O)c1ccccc1C(=O)OCCCC [Butyl octyl phthalate],–,–,–,4.90,23.9,12.7,"Ki (AquaOBP4; Figure 6 legend, 1-NPN 2 μM): 12.7 µM; Ki (AquaOBP4; pH 5): 16.8 µM; EAG response [1]: strong EAG responses"
CC/C=C\CCOC(=O)c1ccccc1 [cis-3-Hexenyl benzoate],–,65.8,35,4.46,65.8,–,–
